From patent US6914045B2, “Glycopeptide antibiotics” (Wyeth Holdings Corporation, priority 2001, dated 2005)
Converted amounts (≈) assume the structure as drawn.

How the values were obtained:
Experiment in all cases: in vitro antibacterial evaluation, MIC by broth dilution
Format in all cases: cell-based
[1] = system: Escherichia coli; conditions: 18 hours at 35° C.
[2] = system: Enterococcus sp.; conditions: broth dilution, 18 hours at 35° C.
Method in brief: (§1)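 Inoculum 5×10^5 CFU/mL; concentrations 64 to 0.06 μg/mL; MIC defined as lowest inhibitory level. Conducted by broth dilution under NCCLS guidelines.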

[3] = system: Staphylococcus sp.; conditions: broth dilution, 18 hours at 35° C.
Method in brief: as §1

[4] = system: Streptococcus sp.; conditions: broth dilution, 18 hours at 35° C.
Method in brief: as §1

- MIC Escherichia coli (ATCC 25922) [1]: >128 µg/mL
- MIC Escherichia coli (GC 4559) [1]: >128 µg/mL
- MIC Escherichia coli (GC 4560) [1]: >128 µg/mL
- MIC Enterococcus avium (GC 4558) [2]: 128 µg/mL (≈ 93.1 µM)
- MIC Enterococcus faecalis (ATCC 29212) [2]: >128 µg/mL
- MIC Enterococcus faecalis (GC 2242) [2]: >128 µg/mL
- MIC Enterococcus faecalis (GC 2691) [2]: >128 µg/mL
- MIC Enterococcus faecalis (GC 3059) [2]: >128 µg/mL
- MIC Enterococcus faecalis (GC 4552) [2]: >128 µg/mL
- MIC Enterococcus faecalis (GC 4553) [2]: >128 µg/mL
- MIC Enterococcus faecalis (GC 4554) [2]: >128 µg/mL
- MIC Enterococcus faecalis (GC 6189) [2]: >128 µg/mL
- MIC Enterococcus faecium (GC 2243) [2]: >128 µg/mL
- MIC Enterococcus faecium (GC 4556) [2]: >128 µg/mL
- MIC Enterococcus faecium (GC 4557) [2]: >128 µg/mL
- MIC Enterococcus faecalis (ATCC 29212) ([2]; inoculum 5×10^5 CFU/mL, strain ATCC 29212): >128 µg/mL
- MIC Enterococcus faecalis (GC 2242) ([2]; inoculum 5×10^5 CFU/mL, strain GC 2242): >128 µg/mL
- MIC Enterococcus faecium (GC 2243) ([2]; inoculum 5×10^5 CFU/mL, strain GC 2243): >128 µg/mL
- MIC Enterococcus faecalis (GC 2691) ([2]; inoculum 5×10^5 CFU/mL, strain GC 2691): >128 µg/mL
- MIC Enterococcus faecalis (GC 3059) ([2]; inoculum 5×10^5 CFU/mL, strain GC 3059): >128 µg/mL
- MIC Enterococcus faecalis (GC 4552) ([2]; inoculum 5×10^5 CFU/mL, strain GC 4552): >128 µg/mL
- MIC Enterococcus faecalis (GC 4553) ([2]; inoculum 5×10^5 CFU/mL, strain GC 4553): >128 µg/mL
- MIC Enterococcus faecalis (GC 4554) ([2]; inoculum 5×10^5 CFU/mL, strain GC 4554): >128 µg/mL
- MIC Enterococcus faecium (GC 4556) ([2]; inoculum 5×10^5 CFU/mL, strain GC 4556): >128 µg/mL
- MIC Enterococcus faecium (GC 4557) ([2]; inoculum 5×10^5 CFU/mL, strain GC 4557): >128 µg/mL
- MIC Enterococcus avium (GC 4558) ([2]; inoculum 5×10^5 CFU/mL, strain GC 4558): 128 µg/mL (≈ 93.1 µM)
- MIC Enterococcus faecalis (GC 6189) ([2]; inoculum 5×10^5 CFU/mL, strain GC 6189): >128 µg/mL
- MIC Coagulase Negative Staphylococcus (GC 4547) [3]: >128 µg/mL
- MIC Coagulase Negative Staphylococcus (GC 4548) [3]: >128 µg/mL
- MIC Coagulase Negative Staphylococcus (GC 4549) [3]: >128 µg/mL
- MIC Coagulase Negative Staphylococcus (GC 4551) [3]: >128 µg/mL
- MIC Coagulase Negative Staphylococcus (GC 6257) [3]: >128 µg/mL
- MIC Staphylococcus aureus-SMITH (GC 4543) [3]: >128 µg/mL
- MIC Staphylococcus aureus-SMITH (GC 4543) ([3]; strain GC 4543): >128 µg/mL
- MIC Coagulase Negative Staphylococcus (GC 4547) ([3]; strain GC 4547): >128 µg/mL
- MIC Coagulase Negative Staphylococcus (GC 4548) ([3]; strain GC 4548): >128 µg/mL
- MIC Coagulase Negative Staphylococcus (GC 4549) ([3]; strain GC 4549): >128 µg/mL
- MIC Coagulase Negative Staphylococcus (GC 4551) ([3]; strain GC 4551): >128 µg/mL
- MIC Coagulase Negative Staphylococcus (GC 6257) ([3]; strain GC 6257): >128 µg/mL
- MIC Staphylococcus aureus (ATCC 29213) ([3]; strain ATCC 29213): >128 µg/mL
- MIC Staphylococcus aureus (GC 1131) ([3]; strain GC 1131): >128 µg/mL
- MIC Staphylococcus aureus (GC 3051) ([3]; strain GC 3051): >128 µg/mL
- MIC Staphylococcus aureus (GC 3053) ([3]; strain GC 3053): >128 µg/mL
- MIC Staphylococcus aureus (GC 4541) ([3]; strain GC 4541): >128 µg/mL
- MIC Staphylococcus aureus (GC 4542) ([3]; strain GC 4542): >128 µg/mL
- MIC Staphylococcus aureus (GC 4544) ([3]; strain GC 4544): >128 µg/mL
- MIC Staphylococcus aureus (GC 4545) ([3]; strain GC 4545): >128 µg/mL
- MIC Streptococcus agalactiae (GC 4564) [4]: >128 µg/mL
- MIC Streptococcus pneumoniae (ATCC 6301) [4]: >128 µg/mL
- MIC Streptococcus pneumoniae (GC 1894) [4]: >128 µg/mL
- MIC Streptococcus pneumoniae (GC 4565) [4]: >128 µg/mL
- MIC Streptococcus pyogenes (GC 4563) [4]: >128 µg/mL
- MIC Streptococcus pneumoniae (ATCC 6301) ([4]; inoculum 5×10^5 CFU/mL, strain ATCC 6301): >128 µg/mL
- MIC Streptococcus pneumoniae (GC 1894) ([4]; inoculum 5×10^5 CFU/mL, strain GC 1894): >128 µg/mL
- MIC Streptococcus pyogenes (GC 4563) ([4]; inoculum 5×10^5 CFU/mL, strain GC 4563): >128 µg/mL
- MIC Streptococcus agalactiae (GC 4564) ([4]; inoculum 5×10^5 CFU/mL, strain GC 4564): >128 µg/mL
- MIC Streptococcus pneumoniae (GC 4565) ([4]; inoculum 5×10^5 CFU/mL, strain GC 4565): >128 µg/mL
Compound: CC(c1ccccc1)C1NC(=O)CNC(=O)C(CO)NC(=O)C(C(O)C2CNC(=N)N2C2OC(CO)C(O)C3OC(C)(C)OC32)NC(=O)C(C(O)C2CNC(=N)N2)NC(=O)C(Cc2ccc(OC3OC(CO)C(OC4OC(CO)C(O)C(O)C4O)C4OC(C)(C)OC34)cc2)NC1=O (centres unmarked) [Example 229]
- MIC Staphylococcus haemolyticus (GC 4546) [3]: >128 µg/mL
- MIC Staphylococcus haemolyticus (GC 4546) ([3]; strain GC 4546): >128 µg/mL
